Values belong to the compound of their own block, whether it stands above or below them.
Experiments:
[1] = system: hypoxia-inducible endogenous VEGF expression in HeLa cells; assay: Hypoxia-inducible endogenous VEGF expression, VEGF ELISA of conditioned media (dose-response EC50); type: cell-based; settings: Homo sapiens
How it was run: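 HeLa cells were cultured 24-48 h under hypoxia (1% O2, 5% CO2, balance N2) with or without compound. Conditioned-media VEGF protein was measured by ELISA against a standard curve. EC50 and CC50 come from percentage-inhibition curves over, e.g., seven concentrations, with maximal inhibition set at 100%.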

recombinant PDE5 = target: T1, recombinant PDE5 (Homo sapiens, UniProt O76074); assay: PDE5 activity, High-Efficiency Fluorescence Polarization Assay (HEFP); type: biochemical; settings: 45 minutes at room temperature, vs positive control Tadalafil, FIG. 12
T1 construct: purchased CalBioChem
Procedure: The compounds of the invention are tested to assess their affect on phosphodiesterase 5 (PDE5) activity. The affect on PDE5 activity is determined using the High-Efficiency Fluorescence Polarization Assay (HEFP) kit from Molecular Devices. The HEFP assay measures the activity of PDE-5 by using fluorescein-labeled derivatives of cGMP as a substrate. When hydrolyzed by PDE-5, fluorescein-labeled cGMP derivatives are able to bind to a binding reagent. The cGMP substrate:binding reagent complex results in a highly polarized fluorescent state.
After combining recombinant PDE5 (CalBioChem) and the cGMP substrate, the mixture is incubated at room temperature for 45 minutes in the presence or absence of compounds or a positive control (Tadalafil). The reaction is stopped upon addition of the binding reagent. Fluorescence polarization is determined on a Viewlux using a setting recommended by the manufacturer.

lung cancer tumor = assay: Lung cancer tumor growth in vivo; design: species or system nude mice; settings: 3 mg/kg twice a day or 30 mg/kg twice a day, vs vehicle, FIG. 1
Procedure: (§1) Compounds of the invention also show activity in the following pharmacodynamic model that assesses tumor VEGF levels. Briefly, HT1080 cells (a human fibrosarcoma cell line) may be implanted subcutaneously in nude mice. After seven days, mice may be administrated compounds orally at a desired dosage range, e.g., 200 mg/kg/day, for seven days. The tumors may then be excised from mice, weighed and homogenized in Tris-HCl buffer containing proteinase inhibitors. Moulder et al., Cancer Res. 61(24):8887-95 (2001). Tumor VEGF levels are subsequently measured using a human VEGF ELISA kit (R&D System). Protein concentrations of the homogenates are measured with a Bio-Rad Protein assay kit and tumor VEGF levels are normalized to the protein concentrations.
(§2) In similarly conducted experiments, compounds of the invention are shown to reduce lung cancer tumor growth (at a dosage of 3 mg/kg, twice a day, or 30 mg/kg, twice a day) (FIG. 1), Ewing's sarcoma and neuroblastoma tumor growth (at a dosage of 30 mg/kg, once a day) (FIG. 2), fibrosarcoma tumor growth (at a dosage of 10 mg/kg 3×/week) (FIG. 3), and human skin malignant melanoma (at a dosage of 10 mg/kg 5×/week) (FIG. 4) as compared to vehicle. Furthermore, the compounds of the invention are shown to reduce VEGF plasma and tumor levels in fibrosarcoma tumors as compared to vehicle (at a dosage of 10 mg/kg 3×/week) (FIG. 5).

human cervical carcinoma = assay: Cervical cancer tumor growth in vivo, alone or with Taxol; design: species or system nude mice; settings: alone or in combination with Taxol (paclitaxel), FIG. 7
[2] = system: neuroblastoma (SY5Y and NGP); assay: Neuroblastoma tumor growth in vivo; design: species or system nude mice; settings: 30 mg/kg once a day, vs vehicle, FIG. 2
Procedure: as §1
as §2, with “5). […]” for “5).”

tumor = assay: Tumor growth in vivo, alone or with Avastin; design: species or system nude mice; settings: alone or in combination with Avastin (bevacizumab), FIG. 8
Procedure: as §1, §2

colon cancer tumor = assay: Colon cancer tumor growth in vivo, alone or with 5-FU; design: species or system nude mice; settings: alone or in combination with 5-FU (fluorouracil), FIG. 6
[3] = system: human skin malignant melanoma; assay: Malignant melanoma tumor growth in vivo; design: species or system nude mice; settings: 10 mg/kg 5×/week, vs vehicle, FIG. 4
Procedure: as §1, §2

[4] = system: Ewing's sarcoma (SK-NEP-1); assay: Ewing's sarcoma tumor growth in vivo; design: species or system nude mice; settings: 30 mg/kg once a day, vs vehicle, FIG. 2
Procedure: as §1
as §2, with “5). […]” for “5).”

[5] = system: Ewing's sarcoma (SK-NEP-1) and neuroblastoma (SY5Y and NGP) tumors; assay: Angiogenesis in excised tumors, immunochemistry with antibodies to Collagen IV; type: in vivo, mice; settings: Collagen IV staining of excised tumors, FIG. 10
From the text: The tumors excised from the mice can also be used in immunochemistry experiments to determine levels of angiogenesis. […] SK-NEP-1 cells were previously believed to be a useful Wilms tumor model.

fibrosarcoma tumor = assay: Fibrosarcoma tumor growth in vivo; design: species or system nude mice; settings: 10 mg/kg 3×/week, vs vehicle, FIG. 3
Procedure: as §1, §2

VEGF mRNA = VEGF mRNA levels by Real-Time PCR under hypoxic conditions; type: cell-based, Human; settings: FIG. 11
Procedure: Human solid tumor cells are treated with various concentrations of a compound of the present invention or a control under hypoxic conditions. Actinomycin D blocks transcription and is used as a control. Total RNA is isolated using the RNeasy kit (Qiagen, Inc., Valencia, Calif., USA) or an acid-guanidinium thiocyanate-phenol-chloroform based method (See Chomczynski, P. and Sacchi, N., Anal. Biochem. 162: 156 (1987), hereby incorporated by reference).
Concentration of total RNA can be determined using the RiboGreen® fluorescent dye (Molecular Probes, Inc., Eugene, Oreg., USA) with the VersaFluor Fluorometer System (BioRad, Hercules, Calif., USA). Quality and integrity of total RNA can be assessed on 1% formaldehyde-agarose gels. First-strand cDNA was synthesized using 1 μg of total RNA (DNase-treated) in a 20 μl reverse transcriptase reaction mixture (Leclerc G J, Barredo J C, Clin. Cancer Res. 2001, 7:942-951, which is hereby incorporated by reference). A region of the VEGF mRNA is amplified using PCR primers. The cDNA amplified fragment (approximately 300 basepairs) is cloned into a vector such as the pCR2.1-TOPO vector (Invitrogen, Carlsbad, Calif., USA) to generate a plasmid. […] Real-Time quantitations are performed using the BIO-RAD iCycler iQ system (BioRad, Hercules, Calif., USA). The fluorescence threshold value can be calculated using the iCycle iQ system software.

VEGF = assay: Tumor and plasma VEGF expression in vivo, alone or with Avastin; design: species or system nude mice; settings: alone or in combination with Avastin, FIG. 9
Procedure: as §1, §2

[6] = system: HT1080 cells (a human fibrosarcoma cell line); assay: In vivo tumor growth PD model, tumor and plasma VEGF levels by human VEGF ELISA; design: species or system nude mice; settings: 10 mg/kg 3×/week, vs vehicle, FIG. 5
Procedure: as §1, §2

[7] = HeLa cells under hypoxic conditions
[8] = HeLa cells, hypoxic conditions (1% O2)
[9] = HeLa cells, hypoxic conditions (1% O2, 5% CO2)

Compound: CCCOC(=O)N1CCc2c([nH]c3ccc(Cl)cc23)C1c1cccc(Cl)c1 (centres unmarked) [Compound 72]
EC50 [1, 7]: 8 to 40 nM

Compound: Clc1ccc2[nH]c3c(c2c1)CCNC3c1ccc(Br)cc1 (centres unmarked) [Compound 171]
EC50 [1, 7]: 200 to 1000 nM

Compound: COc1ccc(C2NC(C(=O)N3CCOCC3)Cc3c2[nH]c2ccc(Br)cc32)cc1 (centres unmarked) [Compound 247]
EC50 [1, 7]: > 1000 nM

Compound: Clc1ccc2[nH]c3c(c2c1)CCN(Cc1ccccc1)C3c1ccccn1 (centres unmarked) [Compound 275]
EC50 [1, 7]: > 1000 nM

Compound: CCOC(=O)N1CCc2c([nH]c3ccc(Cl)cc23)C1C(C)Cc1ccc2c(c1)OCO2 (centres unmarked) [Compound 553]
EC50 [1, 8]: 200 to 1000 nM

Compound: Clc1ccc(C2NCCc3c2[nH]c2ccc(Br)cc32)cc1 (centres unmarked) [Compound 181]
EC50 [1, 7]: 200 to 1000 nM

Compound: CCOC(=O)N1CCc2c([nH]c3ccc(Cl)cc23)C1c1ccc(C(=O)NCCCn2ccnc2)cc1 (centres unmarked) [Compound 533]
EC50 [1, 8]: 200 to 1000 nM

Compound: O=C(Oc1ccc(F)cc1)N1CCc2c([nH]c3ccc(Cl)cc23)C1c1ccc(OCCCn2ccnn2)cc1 (centres unmarked) [Compound 995]
EC50 [1, 9]: < 8 nM

Compound: O=C(Oc1ccc(F)cc1)N1CCc2c([nH]c3ccc(Cl)cc23)C1c1ccc(OCCn2cccn2)cc1 (centres unmarked) [Compound 836]
EC50 [1, 9]: 8 to 40 nM

Compound: Fc1ccc(C2NCCc3c2[nH]c2ccc(Cl)cc32)c(F)c1 (centres unmarked) [Compound 163]
EC50 [1, 7]: 40 to 200 nM

Compound: CCCCCCC1c2[nH]c3ccc(Cl)cc3c2CCN1C(=O)OCC (centres unmarked) [Compound 515]
EC50 [1, 8]: 200 to 1000 nM

Compound: COc1ccc(C2NC(C(=O)N3CCN(C(C)=O)CC3)Cc3c2[nH]c2ccc(Br)cc32)cc1 (centres unmarked) [Compound 244]
EC50 [1, 7]: > 1000 nM

Compound: CCOC(=O)N1CCc2c([nH]c3ccc(Cl)cc23)C1c1ccc(C(=O)N2CCN(CCOC)CC2)cc1 (centres unmarked) [Compound 469]
EC50 [1, 8]: 8 to 40 nM

Compound: CCOC(=O)N1CCc2c([nH]c3ccc(Br)cc23)C1c1ccc(F)c(F)c1 (centres unmarked) [Compound 78]
EC50 [1, 7]: 8 to 40 nM

Now from value to compound, other results behind:

EC50 [1, 7]: < 8 nM | PDE-5 activity (recombinant PDE5): do not inhibit the activity of PDE-5
Compound: CCOC(=O)N1CCc2c([nH]c3ccc(Br)cc23)C1c1ccc(C(C)C)cc1 (centres unmarked) [Compound 7]

EC50 [1, 7]: < 8 nM | PDE-5 activity (recombinant PDE5): do not inhibit the activity of PDE-5
Compound: CC(C)c1ccc(C2c3[nH]c4ccc(Br)cc4c3CCN2c2ncccn2)cc1 (centres unmarked) [Compound 25]

EC50 [1, 8]: 40 to 200 nM
Compound: CNc1ncc(C2c3[nH]c4ccc(Br)cc4c3CCN2C(=O)Oc2ccc(OC)cc2)cn1 (centres unmarked) [Compound 503]

EC50 [1, 7]: 200 to 1000 nM
Compound: COc1ccc(C2NCCc3c2[nH]c2ccc(Br)cc32)cc1 (centres unmarked) [Compound 214]

EC50 [1, 8]: 8 to 40 nM
Compound: COc1ccc(OC(=O)N2CCc3c([nH]c4ccc(Cl)cc34)C2c2ccc(OCC(O)CO)cc2)cc1 (centres unmarked) [Compound 635]

EC50 [1, 7]: 40 to 200 nM
Compound: COC(=O)N1CCc2c([nH]c3ccc(Cl)cc23)C1c1ccc2c(c1)OCO2 (centres unmarked) [Compound 133]

EC50 [1, 7]: 8 to 40 nM
Compound: COC(=O)N1CCc2c([nH]c3ccc(Cl)cc23)C1c1cccc(F)c1 (centres unmarked) [Compound 84]

EC50 [1, 9]: < 8 nM
Compound: COC(=O)NCC(O)COc1ccc(C2c3[nH]c4ccc(Cl)cc4c3CCN2C(=O)Oc2ccc(Cl)cc2)cc1 (centres unmarked) [Compound 848]

EC50 [1, 7]: < 8 nM | PDE-5 activity (recombinant PDE5): do not inhibit the activity of PDE-5
Compound: COc1ccc(C2c3[nH]c4ccc(Cl)cc4c3CCN2C(=O)Oc2ccc(Cl)cc2)cc1 (centres unmarked) [Compound 10]
lung cancer tumor growth (lung cancer tumor): inhibition of lung cancer tumor growth | cervical cancer tumor growth (human cervical carcinoma): inhibition of cervical cancer tumor growth | neuroblastoma tumor growth [2]: inhibition | tumor growth (tumor): inhibition of tumor growth | colon cancer tumor growth (colon cancer tumor): inhibition of colon cancer tumor growth | malignant melanoma tumor growth [3]: inhibition of malignant melanoma tumor growth | Ewing's sarcoma tumor growth [4]: inhibition | angiogenesis [5]: inhibition of angiogenesis | fibrosarcoma tumor growth (fibrosarcoma tumor): inhibition of fibrosarcoma tumor growth | VEGF mRNA levels (VEGF mRNA): does not affect VEGF mRNA levels | plasma VEGF expression (VEGF): inhibition | tumor VEGF expression (VEGF): inhibition | VEGF expression in a fibrosarcoma tumor (tumor VEGF levels) [6]: inhibition of VEGF expression

EC50 [1, 7]: < 8 nM
Compound: C=CCOc1ccc(C2c3[nH]c4ccc(Cl)cc4c3CCN2C(=O)OCC)cc1 (centres unmarked) [Compound 396]

EC50 [1, 7]: > 1000 nM
Compound: COc1ccc(C2c3[nH]c4ccccc4c3CCN2C(=O)NC(C)C)cc1 (centres unmarked) [Compound 306]

EC50 [1, 7]: 8 to 40 nM
Compound: COc1ccc(C2c3[nH]c4ccc(Cl)cc4c3CCN2c2cnccn2)cc1 (centres unmarked) [Compound 1]

EC50 [1, 7]: 200 to 1000 nM
Compound: CCNC(=S)N1CCc2c([nH]c3ccc(Cl)cc23)C1c1ccc(OCc2ccccc2)cc1 (centres unmarked) [Compound 206]

EC50 [1, 7]: 40 to 200 nM
Compound: CC(C)c1ccc(C2c3[nH]c4ccc(Cl)cc4c3CCN2C(=S)NC2CCCCC2)cc1 (centres unmarked) [Compound 335]

From patent US8076352B2, “Administration of carboline derivatives useful in the treatment of cancer and other diseases” (PTC Therapeutics, Inc., priority 2004, dated 2011)
